{
  "source": "patent US8951999B2",
  "about": "“Compounds” (Orexo AB, priority 2009, dated 2015)",
  "note": "pIC50: −log10 of the molar value.",
  "data": [
    {"target": "T1, recombinant human mPGES-1 (Homo sapiens, UniProt O14684)", "T1 sequence (O14684 1-152)": "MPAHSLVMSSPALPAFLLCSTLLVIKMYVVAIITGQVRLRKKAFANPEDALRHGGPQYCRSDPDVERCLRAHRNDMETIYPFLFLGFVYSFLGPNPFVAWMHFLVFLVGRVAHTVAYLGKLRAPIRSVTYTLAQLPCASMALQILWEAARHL", "test": "Assay A: mPGES-1 enzyme assay (HTRF detection of PGE2)", "assay_type": "biochemical", "conditions": "biological assay A (compounds 1-41, 54, 55, 62, 73); PGE2 formation from PGH2, HTRF; read-out: mPGES-1 inhibitory effect IC50", "description": "Assay A: mPGES-1 Enzyme Assay\nThe basis of the assay used is to measure the inhibition of microsomal prostaglandin E2 synthase-1 (mPGES-1) dependent prostaglandin (PG) E2 formation from PGH2 by different compounds. Thus, the formation of PGE2 is used as signal and a lowering of this signal can be interpreted as inhibition of mPGES-1. Similar assays to measure inhibition of mPGES-1 have previously been described in the literature.\n• Glutathione (Sigma, G-4251) • Freeze culture in Rosetta E coli expression strain. • LB growth media with Ampillicillin (Amp) final concentration in culture 50 μg/mL • Chloroamphenicol stock 34 mg/mL (chloro) final concentration in culture 34 μg/mL • Sterile growth flasks for 500 mL-1 liter cultures • 0.1 M KPi buffer pH 7.4 • 9.25% HCl • PGH2 (0.25 mM) • Fe (II) Cl2 tetrahydrate, 99% (Sigma, 220229) • 384-well plate with compounds • 96-well plate, polypropylene (Thermo fast 96 skirted VWR) • 384-well plate polypropylene PCR plate (Greiner 785201) • Greiner 384-well plate pp (In vitro cat. no. 781280) • Adhesive sealing film for 96-well plates (Sigma-Aldrich) • Aluminium foil (PCR foil, 310-0030-127-471 from Labora) • PBS (GIBCO 14040) • Prostaglandin E2 Assay (Cisbio, cat. no. 62P2APEC) • Biomek FX robot (Beckman Coulter) • Biomek NX robot (Beckman Coulter) • Multidrop; micro or combi (ThermoLabsystems) • Plate reader: Safire2 (Tecan)\nMicrosomes from Rosetta E. coli bacteria expressing recombinant human mPGES-1 can be derived as described below:\nInoculate 5 mL LB with Amp and Chloro with bacteria from freeze culture. Incubate over night at 37° C. with 200 rpm. Thereafter, inoculate 500-800 mL LB containing Amp and Chloro with the 5 mL on culture and grow to OD640 of 0.6-0.8. Chill the culture to +4° C. before induction. Induce the culture with IPTG at a final concentration of 400 μM. Express the protein at room temp 18-23° C. with 200 rpm shaking over night.\nThe following steps can be performed on the following day: • 1. Spin down the cells in 250 mL centrifuge flasks for 15 min at 7000 rpm • 2. Dissolve the pellet from 250 mL culture in 12.5 mL homogenization buffer • 3. Disintegrate the cells by sonication, 4×10 seconds at 35% amplitude • 4. Add 2.5 mL MgCl2 (100 mM) and DNase 12.5 μL (0.8 mg/mL) and incubate on ice for 30 min • 5. Spin down the bacteria debris and save the supernatant, 7000 rpm for 15 min • 6. Isolate the protein containing membranes in the supernatant by ultracentrifugation 45000×g for 1 hour. • 7. Discard the supernatant and dissolve the pellet in 20 mM KPi buffer and aliquot the enzyme and store aliquots at −80° C.\nBefore each experiment is performed an aliquot of the enzyme is thawed and it can then be dissolved in 0.1 M KPi pH 7.4 buffer containing 2.5 mM GSH. 50 μL of this enzyme solution is subsequently dispensed in a 384-well plate at room temperature. 0.5 μL of the inhibitor dissolved in DMSO is thereafter added to each well and incubated for 25 minutes at room temperature. Subsequently, 2 μL of PGH2 dissolved in an appropriate solvent is added to each well and after one minute at room temperature, the acidified stop solution containing FeCl2 is added. 4 μL of the total volume is transferred to a separate plate and diluted 750-fold in two separate steps before quantification of PGE2.\nIn order to quantitate the amount of PGE2 that has been formed, a homogenous time resolved fluorescent (HTRF) detection of PGE2 can be performed by the use of a commercially available kit from CisBio essentially according to the manufacturer's protocol. […]", "values": [
      {"smiles": "CC(C)(C)C(=O)NCc1ccc(Cl)c(C(=O)Nc2ccc(OCC(F)F)c(C(=O)Nc3ccc(F)c(Cl)c3)c2)c1", "note": "[Example 7, N-[4-(2,2-Difluoroethyl)oxy-3-(4-fluoro-3-chloro-phenyl)aminocarbonyl-phenyl]-2-chloro-5-(tert-butylcarbonylamino)methyl-benzamide]", "pIC50": 8.40},
      {"smiles": "COc1ccc(NC(=O)c2cc(CNC(=O)C(C)(F)F)ccc2Cl)cc1C(=O)Nc1ccc(Br)cc1", "note": "[Example 30]", "pIC50": 9.00},
      {"smiles": "COc1ccc(NC(=O)c2cc(CNC(=O)C3(C(F)(F)F)CCCC3)ccc2Cl)cc1C(=O)Nc1ccc(Br)cc1", "note": "[Example 22]", "pIC50": 8.70},
      {"smiles": "COc1ccc(NC(=O)c2cc(CNC(=O)C(C)(C)C)ccc2Cl)cc1C(=O)Nc1ccc(Br)cc1", "note": "[Example 4, N-[4-Methoxy-3-(4-bromophenyl)aminocarbonyl-phenyl]-2-chloro-5-(tert-butylcarbonylamino)methyl-benzamide]", "pIC50": 9.00},
      {"smiles": "CC(C)(C)C(=O)NCc1ccc(Cl)c(C(=O)Nc2ccc(OCC(F)F)c(C(=O)NCC3CC3)c2)c1", "note": "[Example 13]", "pIC50": 7.89},
      {"smiles": "CC(C)(C)C(=O)NCc1ccc(Cl)c(C(=O)Nc2cc(F)c(F)c(C(=O)Nc3ccc(Br)cc3)c2)c1", "note": "[Example 54, N-[3,4-Difluoro-5-(4-bromophenyl)aminocarbonyl-phenyl]-2-chloro-5-(tert-butylcarbonylamino)methyl-benzamide]", "pIC50": 8.05},
      {"smiles": "CC(C)(C)C(=O)NCc1ccc(Cl)c(C(=O)Nc2ccc(F)c(C(=O)Nc3ccc(Br)cc3)c2F)c1", "note": "[Example 39]", "pIC50": 7.74},
      {"smiles": "CC(C)(C)C(=O)NCc1ccc(Cl)c(C(=O)Nc2ccc(OCC(F)F)c(C(=O)NCC3CC3(C)C)c2)c1", "note": "(centres unmarked) [Example 14]", "pIC50": 8.40},
      {"smiles": "COc1ccc(NC(=O)c2cc(CNS(=O)(=O)C3CC3)ccc2Cl)cc1C(=O)Nc1ccc(Br)cc1", "note": "[Example 36, N-[4-Methoxy-3-(4-bromophenyl)aminocarbonyl-phenyl]-2-chloro-5-cyclopropylsulphonylaminomethyl-benzamide]", "pIC50": 8.22},
      {"smiles": "CC(C)(C)C(=O)NCc1ccc(Cl)c(C(=O)Nc2ccc(Cl)c(C(=O)NC3CC3)c2)c1", "note": "[Example 20]", "pIC50": "~5.52"},
      {"smiles": "CC(C)(C)C(=O)NCc1ccc(Cl)c(C(=O)Nc2ccc(OCC(F)F)c(C(=O)NCC#Cc3ccccc3)c2)c1", "note": "[Example 40]", "pIC50": 8.30},
      {"smiles": "COc1ccc(NC(=O)c2cc(CNC(=O)C(C)(C)C)ccc2Cl)cc1C(=O)NC1CCCCC1", "note": "[Example 17]", "pIC50": 7.80},
      {"smiles": "CC(C)(C)C(=O)NCc1ccc(Cl)c(C(=O)Nc2ccc(OCC(F)F)c(C(=O)NCC3CCC3)c2)c1", "note": "[Example 12]", "pIC50": 8.52},
      {"smiles": "COc1ccc(NC(=O)c2cc(CNC(=O)C(C)(N)C(F)(F)F)ccc2Cl)cc1C(=O)Nc1ccc(Br)cc1", "note": "(centres unmarked) [Example 33]", "pIC50": 8.70},
      {"smiles": "COc1ccc(NC(=O)c2cc(CNC(=O)c3c(F)cccc3Cl)ccc2Cl)cc1C(=O)Nc1ccc(Br)cc1", "note": "[Example 25]", "pIC50": 9.00},
      {"smiles": "O=C(Nc1ccc(Cl)c(C(=O)NC2CC2)c1)c1cc(CNC(=O)C2CC2)ccc1Cl", "note": "[Example 21]", "pIC50": "~5.74"},
      {"smiles": "CC1CCN(c2ccc(NC(=O)c3cc(CNC(=O)C(C)(C)C)ccc3Cl)cc2C(=O)Nc2ccc(Br)cc2)CC1", "note": "[Example 37, N-[4-(4-Methyl-piperidin-1-yl)-3-(4-bromophenyl)aminocarbonyl-phenyl]-2-chloro-5-(tert-butylcarbonylamino)methyl-benzamide]", "pIC50": 9.00},
      {"smiles": "CC(C)(C)C(=O)NCc1ccc(Cl)c(C(=O)Nc2ccc(F)c(C(=O)Nc3ccc(Br)cc3)c2)c1", "note": "[Example 2, N-[4-Fluoro-3-(4-bromophenyl)aminocarbonyl-phenyl]-2-chloro-5-(tert-butylcarbonylamino)methyl-benzamide]", "pIC50": 8.40},
      {"smiles": "CC(C)(C)C(=O)NCc1ccc(Cl)c(C(=O)Nc2ccc(OCC(F)F)c(C(=O)N[C@H]3CC[C@H](C(F)(F)F)CC3)c2)c1", "note": "[Example 5, N-[4-(2,2-Difluoroethyl)oxy-3-[trans-(4-trifluoromethyl-cyclohexyl)amino]carbonyl-phenyl]-2-chloro-5-(tert-butylcarbonylamino)methyl-benzamide]", "pIC50": 8.70},
      {"smiles": "CC(C)(C(=O)NCc1ccc(Cl)c(C(=O)Nc2cnc(OCC(F)F)c(C(=O)Nc3ccc(Br)cc3)c2)c1)C(F)(F)F", "note": "[Example 73, N-[2-(2,2-Difluoroethyl)oxy-3-(4-bromophenyl)aminocarbonyl-pyridin-5-yl]-2-chloro-5-[(2,2,2-trifluoro-1,1-dimethyl-ethyl)carbonylamino]methyl-benzamide]", "pIC50": 8.15},
      {"smiles": "CC(C)(C)C(=O)NCc1ccc(Cl)c(C(=O)Nc2ccc(OCC(F)F)c(C(=O)Nc3ccc(Br)cc3)c2)c1", "note": "[Example 15]", "pIC50": 8.70},
      {"smiles": "CCC(C)(CC)C(=O)NCc1ccc(Cl)c(C(=O)Nc2ccc(OC)c(C(=O)Nc3ccc(Br)cc3)c2)c1", "note": "[Example 34]", "pIC50": 8.70},
      {"smiles": "COc1ccc(NC(=O)c2cc(CNC(=O)c3cccnc3Cl)ccc2Cl)cc1C(=O)Nc1ccc(Br)cc1", "note": "[Example 24]", "pIC50": 8.70},
      {"smiles": "CC(C)(C)C(=O)NCc1ccc(Cl)c(C(=O)Nc2cnc(OCC(F)F)c(C(=O)Nc3ccc(Br)cc3)c2)c1", "note": "[Example 6, N-[2-(2,2-Difluoroethyl)oxy-3-(4-bromophenyl)aminocarbonyl-pyridin-5-yl]-2-chloro-5-(tert-butylcarbonylamino)methyl-benzamide]", "pIC50": 8.70},
      {"smiles": "COc1ccc(NC(=O)c2cc(CNC(=O)C3(O)CC3)ccc2Cl)cc1C(=O)Nc1ccc(Br)cc1", "note": "[Example 28]", "pIC50": 8.40},
      {"smiles": "CC(C)(C)C(=O)NCc1ccc(Cl)c(C(=O)Nc2ccc(OCC(F)(F)F)c(C(=O)NCC3CC3)c2)c1", "note": "[Example 41]", "pIC50": 8.52}
    ]},
    {"target": "T1, recombinant human mPGES-1", "test": "Assay B: mPGES-1 enzyme assay (modified)", "assay_type": "biochemical", "conditions": "biological assay B (all other compounds); PGH2 final conc. 2 μM, HTRF; read-out: mPGES-1 inhibitory effect IC50", "in_short": "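Microsomal recombinant human mPGES-1 preincubated 25 min at room temperature with compound in pH 7.4 phosphate buffer containing 2.5 mmol/L GSH; reaction started with 2 μM PGH2 (final), stopped with FeCl2 after 60 s. PGE2 quantified by HTRF against calibration curve; IC50 by nonlinear regression after background subtraction.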", "values": [
      {"smiles": "CC(C)(C(=O)NCc1ccc(Cl)c(C(=O)Nc2ccc(OCC(F)F)c(C(=O)Nc3ccc(Cl)c(Cl)c3)c2)c1)C(F)(F)F", "note": "[Example 125]", "pIC50": 8.30},
      {"smiles": "CC(C)NC(=O)c1cc(NC(=O)c2cc(CNC(=O)C(C)(C)C(F)(F)F)ccc2Cl)ccc1OCC(F)F", "note": "[Example 110]", "pIC50": 7.77},
      {"smiles": "Cn1cccc1C(=O)NCc1ccc(Cl)c(C(=O)Nc2ccc(OCC(F)F)c(C(=O)Nc3ccc(Br)cc3)c2)c1", "note": "[Example 167]", "pIC50": 7.33},
      {"smiles": "CC(NC(=O)c1cc(NC(=O)c2cc(CNC(=O)C(C)(C)C(F)(F)F)ccc2Cl)ccc1OCC(F)F)C1CC1", "note": "(centres unmarked) [Example 135]", "pIC50": 8.15},
      {"smiles": "CC(C)(C(=O)NCc1ccc(Cl)c(C(=O)Nc2ccc(OCC(F)F)c(C(=O)NCC3CC3)c2)c1)C(F)(F)F", "note": "[Example 95]", "pIC50": 8.10},
      {"smiles": "CC(C)(C)C(=O)NCc1ccc(Cl)c(C(=O)Nc2ccc(N3CCC(C(F)(F)F)CC3)c(C(=O)N[C@H]3CC[C@H](C(F)(F)F)CC3)c2)c1", "note": "[Example 58, N-[4-(4-Trifluoromethyl-piperidin-1-yl)-3-(trans-4-trifluoromethylcyclohexyl)aminocarbonyl-phenyl]-2-chloro-5-(tert-butylcarbonylamino)methyl-benzamide]", "pIC50": 8.52}
    ]}
  ]
}
